One compound from the NIST ThermoML archive (doi:10.1021/acs.jced.8b00165) can be followed below.

Each structure is given as a SMILES string. ± gives the expanded uncertainty stated by the source.

For the data set the following is noted: Crystal; DTA.

For `CNC(=O)c1cc(Oc2ccc(N)cc2)ccn1` [4-(4-aminophenoxy)-N-methylpyridine-2-carboxamide], the Normal melting temperature came to 117.00 ± 1.1 °C.
